Measurements from patent publication US20260116868A1 (Arcus Biosciences, Inc., priority 2023, published 2026).
Read-outs that look alike come from different tables or passages of the source.

What was measured:
[1] = molecular target: T1, Cbl-b (Homo sapiens, UniProt Q13191); assay: Cbl-b probe displacement HTRF binding assay; conditions: 0.4 nM Cbl-b, 150 nM BODIPY probe
T1 construct: biotin (biotinylated protein)
Summary of the method: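 Compound competes with BODIPY probe (150 nM) for biotinylated Cbl-b (0.4 nM) in HEPES/NaCl/Triton/TCEP/BSA buffer; 60 min preincubation, 15 min with probe, room temperature. Tb-streptavidin HTRF read; % displacement vs DMSO and no-protein controls, IC50 from four-parameter fit.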

[2] = test system: Jurkat cells; assay: IL-2 secretion assay in Jurkat cells activated with CD3/CD28 T Cell Activator; format: cell-based; conditions: Homo sapiens, 24 h, read-out: IL-2 Secretion (EC50)
Summary of the method: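 Jurkat cells in Opti-MEM were preincubated 1 h at 37° C with compound (final 10 μM to 300 pM, 16-point 1:2 dilution), then activated with human CD3/CD28 T Cell Activator for 24 h at 37° C. Supernatant IL-2 measured by AlphaLISA; EC50 from 4-parameter logistic fit.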

[3] = Jurkat cells, CD3/CD28 T Cell Activator, IL-2 AlphaLISA

T1 sequence (Q13191 whole entry, species assumed): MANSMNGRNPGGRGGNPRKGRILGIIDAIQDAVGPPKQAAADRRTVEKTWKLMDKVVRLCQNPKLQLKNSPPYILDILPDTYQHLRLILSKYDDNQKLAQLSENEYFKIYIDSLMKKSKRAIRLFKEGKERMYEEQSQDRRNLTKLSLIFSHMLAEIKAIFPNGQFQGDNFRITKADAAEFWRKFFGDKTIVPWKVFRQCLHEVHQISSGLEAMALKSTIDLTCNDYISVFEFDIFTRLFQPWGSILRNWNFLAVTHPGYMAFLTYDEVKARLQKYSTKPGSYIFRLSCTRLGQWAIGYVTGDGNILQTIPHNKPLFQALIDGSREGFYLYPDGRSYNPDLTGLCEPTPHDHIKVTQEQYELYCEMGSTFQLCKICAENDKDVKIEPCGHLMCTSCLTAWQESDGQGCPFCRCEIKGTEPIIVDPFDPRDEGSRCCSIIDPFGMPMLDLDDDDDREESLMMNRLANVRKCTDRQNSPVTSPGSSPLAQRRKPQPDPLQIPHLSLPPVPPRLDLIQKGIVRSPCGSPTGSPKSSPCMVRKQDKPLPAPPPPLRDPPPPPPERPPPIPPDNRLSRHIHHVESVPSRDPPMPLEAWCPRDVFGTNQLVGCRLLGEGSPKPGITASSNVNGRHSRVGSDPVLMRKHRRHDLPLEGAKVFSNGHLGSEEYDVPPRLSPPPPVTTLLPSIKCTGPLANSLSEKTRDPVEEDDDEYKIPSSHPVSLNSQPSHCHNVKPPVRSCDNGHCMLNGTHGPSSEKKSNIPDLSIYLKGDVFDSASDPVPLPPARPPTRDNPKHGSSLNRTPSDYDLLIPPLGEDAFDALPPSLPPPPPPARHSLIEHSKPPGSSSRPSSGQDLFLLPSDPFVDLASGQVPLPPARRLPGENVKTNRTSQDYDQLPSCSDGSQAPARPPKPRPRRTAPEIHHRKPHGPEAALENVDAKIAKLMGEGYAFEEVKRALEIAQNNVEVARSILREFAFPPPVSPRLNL

SMILES | IC50 [1] | EC50 [2, 3] | EC50 ([2]; Jurkat)
Cn1cnnc1-c1cc(F)ccc1-c1cc(NC(=O)c2cc(C3CC3)cn(C3CC3)c2=O)nc(C2CC2)c1 [Example 29, N-{6-Cyclopropyl-4-[4-fluoro-2-(4-methyl-4H-1,2,4-triazol-3-yl)phenyl]-2-pyridyl}-1-cyclopropyl-5-cyclopropyl-2-oxo-1,2-dihydronicotinamide] | 100 to 1000 nM | 1000 to 5000 nM | –
Cn1cnnc1-c1cc(F)ccc1-c1cc(NC(=O)c2cc(C3CCNC3)cn(C3CC3)c2=O)nc(C2CC2)c1 (stereo not shown) [Example 30, N-{6-Cyclopropyl-4-[4-fluoro-2-(4-methyl-4H-1,2,4-triazol-3-yl)phenyl]-2-pyridyl}-1-cyclopropyl-2-oxo-5-(3-pyrrolidinyl)-1,2-dihydronicotinamide] | 100 to 1000 nM | > 5000 nM | –
Cn1cnnc1-c1cc(F)ccc1-c1cc(NC(=O)c2cc(C3CCNC3)cn(CC3CC3)c2=O)nc(C2CC2)c1 (stereo not shown) [Example 31, N-[6-cyclopropyl-4-[4-fluoro-2-(4-methyl-1,2,4-triazol-3-yl)phenyl]pyridin-2-yl]-1-(cyclopropylmethyl)-2-oxo-5-pyrrolidin-3-ylpyridine-3-carboxamide] | 100 to 1000 nM | > 5000 nM | –
CN(C)Cc1c[nH]c(=O)c(C(=O)Nc2cc(-c3ccc(F)cc3-c3nncn3C)cc(C3CC3)n2)c1 [Example 32, N-{6-Cyclopropyl-4-[4-fluoro-2-(4-methyl-4H-1,2,4-triazol-3-yl)phenyl]-2-pyridyl}-5-[(dimethylamino)methyl]-2-oxo-1,2-dihydronicotinamide] | < 100 nM | 1000 to 5000 nM | –
CN(C)Cc1cc(C(=O)Nc2cc(-c3ccc(F)cc3-c3nncn3C)cc(C3CC3)n2)c(=O)n(C2CC2)c1 [Example 33, N-{6-Cyclopropyl-4-[4-fluoro-2-(4-methyl-4H-1,2,4-triazol-3-yl)phenyl]-2-pyridyl}-1-cyclopropyl-5-[(dimethylamino)methyl]-2-oxo-1,2-dihydronicotinamide] | < 100 nM | 100 to 1000 nM | –
C=CCn1cc(CN(C)C)cc(C(=O)Nc2cc(-c3ccc(F)cc3-c3nncn3C)cc(C3CC3)n2)c1=O [Example 34, N-{6-Cyclopropyl-4-[4-fluoro-2-(4-methyl-4H-1,2,4-triazol-3-yl)phenyl]-2-pyridyl}-1-allyl-5-[(dimethylamino)methyl]-2-oxo-1,2-dihydronicotinamide] | < 100 nM | 1000 to 5000 nM | –
C[C@H]1CCCN(Cc2cc(C(=O)Nc3cc(-c4ccc(C#N)cc4-c4nccn4C)cc(Cl)n3)c(=O)n(C3CC3)c2)C1 [Example 35, N-{6-chloro-4-[4-cyano-2-(1-methyl-2-imidazolyl)phenyl]-2-pyridyl}-5-{[(S)-3-methyl-1-piperidyl]methyl}-1-cyclopropyl-2-oxo-1,2-dihydronicotinamide] | < 100 nM | 100 to 1000 nM | –
CN1C[C@@H]2C[C@H]1CN2Cc1cc(C(=O)Nc2cc(-c3ccc(C#N)cc3-c3nccn3C)cc(C3CC3)n2)c(=O)n(C2CC2)c1 [Example 38, N-{4-[4-cyano-2-(1-methyl-2-imidazolyl)phenyl]-6-cyclopropyl-2-pyridyl}-5-({(1S,4S)-5-methyl-2,5-diazabicyclo[2.2.1]hept-2-yl}methyl)-1-cyclopropyl-2-oxo-1,2-dihydronicotinamide] | 100 to 1000 nM | 1000 to 5000 nM | –
Cn1ccnc1-c1cc(C#N)ccc1-c1cc(NC(=O)c2cc(CNC3(C)CCC3)cn(C3CC3)c2=O)nc(C2CC2)c1 [Example 39, N-{4-[4-cyano-2-(1-methyl-2-imidazolyl)phenyl]-6-cyclopropyl-2-pyridyl}-1-cyclopropyl-5-[(1-methylcyclobutylamino)methyl]-2-oxo-1,2-dihydronicotinamide] | < 100 nM | < 100 nM | –
Cn1ccnc1-c1cc(C#N)ccc1-c1cc(NC(=O)c2cc(CNCCOC(F)(F)F)cn(C3CC3)c2=O)nc(C2CC2)c1 [Example 40, N-{4-[4-cyano-2-(1-methyl-2-imidazolyl)phenyl]-6-cyclopropyl-2-pyridyl}-1-cyclopropyl-2-oxo-5-[(2-trifluoromethoxyethylamino)methyl]-1,2-dihydronicotinamide] | < 100 nM | 100 to 1000 nM | –
Cn1ccnc1-c1cc(C#N)ccc1-c1cc(NC(=O)c2cc(CN3CCC4(CC4)C3)cn(C3CC3)c2=O)nc(C2CC2)c1 [Example 41, N-{4-[4-cyano-2-(1-methyl-2-imidazolyl)phenyl]-6-cyclopropyl-2-pyridyl}-5-{(5-aza-5-spiro[2.4]heptyl)methyl}-1-cyclopropyl-2-oxo-1,2-dihydronicotinamide] | < 100 nM | 100 to 1000 nM | –
COCCNCc1cc(C(=O)Nc2cc(-c3ccc(C#N)cc3-c3nccn3C)cc(C3CC3)n2)c(=O)n(C2CC2)c1 [Example 42, N-{4-[4-cyano-2-(1-methyl-2-imidazolyl)phenyl]-6-cyclopropyl-2-pyridyl}-1-cyclopropyl-5-[(2-methoxyethylamino)methyl]-2-oxo-1,2-dihydronicotinamide] | < 100 nM | < 100 nM | –
C[C@H]1CCCN(Cc2cc(C(=O)Nc3cc(-c4ccc(C#N)cc4-c4nccn4C)cc(C4CC4)n3)c(=O)n(C3CC3)c2)C1 [Example 43, N-{4-[4-cyano-2-(1-methyl-2-imidazolyl)phenyl]-6-cyclopropyl-2-pyridyl}-5-{[(S)-3-methyl-1-piperidyl]methyl}-1-cyclopropyl-2-oxo-1,2-dihydronicotinamide] | < 100 nM | < 100 nM | –
C[C@H]1CCCN(Cc2cc(C(=O)Nc3cc(-c4ccc(C(N)=O)cc4-c4nccn4C)cc(C4CC4)n3)c(=O)n(C3CC3)c2)C1 [Example 44, N-{4-[4-carbamoyl-2-(1-methyl-2-imidazolyl)phenyl]-6-cyclopropyl-2-pyridyl}-5-{[(S)-3-methyl-1-piperidyl]methyl}-1-cyclopropyl-2-oxo-1,2-dihydronicotinamide] | 100 to 1000 nM | 1000 to 5000 nM | –
[2H]C([2H])([2H])n1ccnc1-c1cc(C#N)ccc1-c1cc(NC(=O)c2cc(CNCCOC)cn(C3CC3)c2=O)nc(C2CC2)c1 [Example 45, N-[4-(4-cyano-2-{1-[(^2H3)methyl]-2-imidazolyl}phenyl)-6-cyclopropyl-2-pyridyl]-1-cyclopropyl-5-[(2-methoxyethylamino)methyl]-2-oxo-1,2-dihydronicotinamide] | < 100 nM | < 100 nM | –
COCCNCc1cc(C(=O)Nc2cc(-c3ccc(C#N)cc3-c3nc(C(F)(F)F)cn3C)cc(C3CC3)n2)c(=O)n(C2CC2)c1 [Example 46, N-(4-{4-cyano-2-[1-methyl-4-(trifluoromethyl)-2-imidazolyl]phenyl}-6-cyclopropyl-2-pyridyl)-1-cyclopropyl-5-[(2-methoxyethylamino)methyl]-2-oxo-1,2-dihydronicotinamide] | 100 to 1000 nM | 1000 to 5000 nM | –
C[C@H]1CCCN(Cc2cc(C(=O)Nc3cc(-c4ccc(C#N)cc4-c4nc(C(F)(F)F)cn4C)cc(C4CC4)n3)c(=O)n(C3CC3)c2)C1 [Example 47, N-(4-{4-cyano-2-[1-methyl-4-(trifluoromethyl)-2-imidazolyl]phenyl}-6-cyclopropyl-2-pyridyl)-5-{[(S)-3-methyl-1-piperidyl]methyl}-1-cyclopropyl-2-oxo-1,2-dihydronicotinamide] | 100 to 1000 nM | 1000 to 5000 nM | –
COCCNCc1cc(C(=O)Nc2cc(-c3ccc(C#N)cc3-c3nc(C#N)cn3C)cc(C3CC3)n2)c(=O)n(C2CC2)c1 [Example 48, N-{4-[4-cyano-2-(4-cyano-1-methyl-2-imidazolyl)phenyl]-6-cyclopropyl-2-pyridyl}-1-cyclopropyl-5-[(2-methoxyethylamino)methyl]-2-oxo-1,2-dihydronicotinamide] | < 100 nM | < 100 nM | –
Cn1cc(C#N)nc1-c1cc(C#N)ccc1-c1cc(NC(=O)c2cc(CNC3(C)CCC3)cn(C3CC3)c2=O)nc(C2CC2)c1 [Example 49, N-{4-[4-cyano-2-(4-cyano-1-methyl-2-imidazolyl)phenyl]-6-cyclopropyl-2-pyridyl}-1-cyclopropyl-5-[(1-methylcyclobutylamino)methyl]-2-oxo-1,2-dihydronicotinamide] | < 100 nM | < 100 nM | –
COCCNCc1cc(C(=O)Nc2cc(-c3ccc(C#N)cc3-c3ocnc3C)cc(C3CC3)n2)c(=O)n(C2CC2)c1 [Example 52, N-{4-[4-cyano-2-(4-methyl-1,3-oxazol-5-yl)phenyl]-6-cyclopropyl-2-pyridyl}-1-cyclopropyl-5-[(2-methoxyethylamino)methyl]-2-oxo-1,2-dihydronicotinamide] | 1000 to 5000 nM | > 5000 nM | –
Cc1ocnc1-c1cc(C#N)ccc1-c1cc(NC(=O)c2cc(CNC3(C)CCC3)cn(C3CC3)c2=O)nc(C2CC2)c1 [Example 53, N-{4-[4-cyano-2-(5-methyl-1,3-oxazol-4-yl)phenyl]-6-cyclopropyl-2-pyridyl}-1-cyclopropyl-5-[(1-methylcyclobutylamino)methyl]-2-oxo-1,2-dihydronicotinamide] | < 100 nM | 100 to 1000 nM | –
COCCNCc1cc(C(=O)Nc2cc(-c3ccc(C#N)cc3-c3[nH]c(C)nc3C)cc(C3CC3)n2)c(=O)n(C2CC2)c1 [Example 54, N-{4-[4-cyano-2-(2,4-dimethyl-5-imidazolyl)phenyl]-6-cyclopropyl-2-pyridyl}-1-cyclopropyl-5-[(2-methoxyethylamino)methyl]-2-oxo-1,2-dihydronicotinamide] | < 100 nM | – | 100 to 1000 nM
Cn1cnnc1-c1cc(F)ccc1-c1cc(NC(=O)c2cc(CNC3(C)CCC3)cn(CC3CC3)c2=O)nc(C2CC2)c1 [Example 55] | < 100 nM | < 100 nM | –
